Measured values published in US5849736A, “Isoxazoline and isoxazole fibrinogen receptor antagonists” (The DuPont Merck Pharmaceutical Company, priority 1995, dated 1998).
Counter-ions that a name gives are not always drawn. Like-named read-outs stand apart in the source and are kept apart here.

Test system: platelet aggregation in human platelet rich plasma (PRP)
Assay: Platelet Aggregation Assay (platelet rich plasma, with or without esterase pretreatment)
Format: cell-based
Procedure: Venous blood was obtained from the arm of a healthy human donor who was drug-free and aspirin-free for at least two weeks prior to blood collection. Blood was collected into 10 mL citrated Vacutainer tubes. The blood was centrifuged for 15 minutes at 150×g at room temperature, and platelet-rich plasma (PRP) was removed. The remaining blood was centrifuged for 15 minutes at 1500×g at room temperature, and platelet-poor plasma (PPP) was removed. Samples were assayed on a aggregometer (PAP-4 Platelet Aggregation Profiler), using PPP as the blank (100% transmittance). 200 μL of PRP was added to each micro test tube, and transmittance was set to 0%. 20 μL of various agonists (ADP, collagen, arachidonate, epinephrine, thrombin) were added to each tube, and the aggregation profiles were plotted (% transmittance versus time). The results are expressed as % inhibition of agonist-induced platelet aggregation. For the IC50 evaluation, the test compounds were added at various concentrations prior to the activation of the platelets.
Ester prodrugs were preincubated (10^-3 M F.C.) with 100 IU/mL Porcine liver esterase (Sigma Chemical Co., St. Louis, Mo., #E-3128) for 2 hours at 37° C. Aliquots are then diluted in 0.1M Tris, pH 7.4, to the desired concentrations. Aliquots of 20 μl of the esterase pretreated prodrugs are added to 200 μl of human platelet rich plasma. Samples were placed in platelet profiler (aggregometer) for 8 minutes at 37° C., followed by the addition of 100 μM Adenosine Diphosphate, (Sigma Chemical Co., St. Louis, Mo., #A-6521), to induce platelet aggregation. Platelet aggregation was allowed to proceed for 5 minutes. Percent inhibition is calculated using percent aggregation in the presence of the test compound divided by percent aggregation of control, times 100. This value is subtracted from 100, yielding percent inhibition. Calculation of IC50 is performed on a Texas Instruments TI59 with an IC50 program.
Table A below sets forth the antiplatelet activity of representative compounds of the present invention. The indicated compounds were tested for their ability to inhibit platelet aggregation (using platelet rich plasma (PRP)). The IC50 value (the concentration of antagonist which inhibits platelet aggregation by 50% relative to a control lacking the antagonist) is shown. In Table 5 the IC50 values are expressed as: +++=IC50 of <10 μM; ++=IC50 of 10-50 μM; +=IC50 of 50-100 μM (μM=micromolar).

[1] = Platelet, without esterase, read-out: Platelet Aggregation Assay IC50 (without esterase)
[2] = Platelet, without esterase, given as a bound, not a class symbol, read-out: Platelet Aggregation Assay IC50 (without esterase)
[3] = Platelet, preincubated with 100 IU/mL porcine liver esterase 2 hours at 37° C., 100 μM ADP, read-out: Platelet Aggregation Assay IC50 (with esterase)
[4] = preincubated with 100 IU/mL porcine liver esterase 2 hours at 37° C., 100 μM ADP, read-out: Platelet Aggregation Assay IC50 (with esterase)

Row | SMILES | IC50 [3] [µM] | also measured
1 | O=C(O)CC1CC(c2ccc(OCCC3CCNCC3)cc2)=NO1 (racemic) [Example 1, 3-(4-[2-Piperidin-4-yl)ethoxy]phenyl]-(5R,S)-isoxazolin-5-ylacetic Acid, Trifluoroacetic Acid Salt] | – | IC50 [1]: < 10 µM
2 | O=C(O)CCC1CC(c2ccc(OCC3CCNCC3)cc2)=NO1 (racemic) [Example 6, 3-(3-[4-(Piperidin-4-ylmethoxy)phenyl]-(5R,S)-isoxazolin-5-yl)propionic Acid, Trifluoroacetic Acid Salt] | – | IC50 [1]: < 10 µM
3 | O=C(O)CC1CC(c2ccc(OCC3CCNCC3)cc2)=NO1 (racemic) [Example 7, 3-[4-(Piperidin-4-ylmethoxy)phenyl]-(5R,S)-isoxazolin-5-ylacetic Acid, Trifluoroacetic Acid Salt] | – | IC50 [2]: > 100 µM
4 | O=C(O)CCC1CC(c2ccc(OCCC3CCNCC3)cc2)=NO1 (racemic) [Example 8, 3-[4-(2-Piperidin-4-yl)ethoxyphenyl]-(5R,S) -isoxazolin-5-ylpropionic Acid, Trifluoroacetic Acid Salt] | – | IC50 [1]: 50 to 100 µM
5 | COC(=O)C1(CC(=O)O)CC(c2ccc(OCCC3CCNCC3)cc2)=NO1 (racemic) [Example 33, Trifluoroacetic Acid Salt] | – | IC50 [2]: > 100 µM
6 | N=C(N)c1ccc(C2=NOC(CC(=O)NC(CC(=O)O)c3ccccc3)C2)cc1 (racemic) [Example 43, N-[3-(4-Amidinophenyl)isoxazolin-5(R,S)-ylacetyl]-(R,S)-3-amino-3-phenylpropanoic Acid] | – | IC50 [1]: < 10 µM
7 | O=C(O)CCN1C(=O)CC2(CC(CCC3CCNCC3)=NO2)C1=O (racemic) [Example 189, 5(R,S)-(2-Piperidin-4-ylethyl-8-(2-carboxyethyl)-1-oxa-2,8-diazaspiro[4.4]non-2-ene-7,9-dione] | – | IC50 [2]: > 100 µM
8 | COC(=O)CC(CSc1ccccc1)NC(=O)CC1CC(c2ccc(C(=N)N)cc2)=NO1 (racemic) [Example 350, Methyl 3(R,S)-N-(R,S)-{5-[3-(4-amidinophenyl)isoxazolin-5-ylacetyl]amino}-4-(phenylthio)butanoate hydrochloric acid salt] | < 10 | –
9 | COC(=O)CC(CNS(=O)(=O)c1ccccc1)NC(=O)CC1CC(c2ccc(C(=N)N)cc2)=NO1 (racemic) [Example 359, Methyl 3(R,S) -{5(R,S)-N-[3-(4-amidinophenyl)isoxazolin-5-ylacetyl]amino}-4-(phenylsulfonamido)butanoate . trifluoroacetic acid salt] | < 10 | –
10 | CCCCS(=O)(=O)NCC(CC(=O)OC)NC(=O)CC1CC(c2ccc(C(=N)N)cc2)=NO1 (racemic) [Example 362, Methyl 3(R,S)-{5(R,S)-N-[3-(4-amidinophenyl)isoxazolin-5-ylacetyl]amino}-4-(n-butylsulfonamido)butanoate . trifluoroacetic acid salt] | < 10 | –
11 | COC(=O)CC(CC(=O)OC)NC(=O)CC1CC(c2ccc(C(=N)N)cc2)=NO1 (racemic) [Example 365, Methyl {5(R,S)-N-[3-(4-amidinophenyl)isoxazolin-5-ylacetyl]amino}-4-(methoxycarbonyl)butanoate . trifluoroacetic acid salt] | < 10 | –
12 | COC(=O)CCC(CC(=O)OC)NC(=O)CC1CC(c2ccc(C(=N)N)cc2)=NO1 (racemic) [Example 368, trifluoroacetic acid salt] | < 10 | –
13 | N=C(N)c1ccc(C2=NOC(CC(=O)N3CCCCCC3CC(=O)O)C2)cc1 (racemic) [Example 377, 2-(R,S)-2-Carboxymethyl-1-{5-(R,S)-N-[3-(4-amidinophenyl)isoxazolin-5-ylacetyl]}azepine] | – | IC50 [1]: < 10 µM
14 | COC(=O)CC1C(=O)NCCN1C(=O)CC1CC(c2ccc(C(=N)N)cc2)=NO1 (racemic) [Example 400, 3-(R,S)-(Methoxy-2-oxoethyl)-4-{5-(R,S)-N-[3-(4-amidinophenyl)isoxazolin-5-ylacetyl]}piperazin-2-one] | – | IC50 [1]: < 10 µM
15 | O=C(N[C@H](C(=O)O)C1CC(c2ccc(OCCC3CCNCC3)cc2)=NO1)OCc1ccccc1 (single isomer, unassigned) [4 (isomer A)] | – | IC50 [1]: 10 to 50 µM
16 | O=C(N[C@H](C(=O)O)C1CC(c2ccc(OCCC3CCNCC3)cc2)=NO1)OCc1ccccc1 (single isomer, unassigned) [4 (isomer B), Trifluoroacetic Acid Salt] | – | IC50 [1]: 10 to 50 µM
17 | CCCCS(=O)(=O)NC(CC1CC(c2ccc(OCC3CCNCC3)cc2)=NO1)C(=O)O (single isomer, unassigned) [9 (isomer A)] | – | IC50 [1]: < 10 µM
18 | CCCCS(=O)(=O)NC(CC1CC(c2ccc(OCC3CCNCC3)cc2)=NO1)C(=O)O (single isomer, unassigned) [9 (isomer B), 3-(3-[4-{(Piperidin-4-yl)methoxy}phenyl]isoxazolin-5-yl{[butanesulfonyl]amino}]propionic Acid, Trifluoroacetic Acid Salt (Less Polar Diastereomer)] | – | IC50 (without esterase, read-out: Platelet Aggregation Assay IC50 (without esterase)): < 10 µM

Row | SMILES | IC50 [3] [µM] | also measured
19 | COC(=O)C[C@@H](Cc1ccccc1)NC(=O)CC1CC(c2ccc(C(=N)N)cc2)=NO1 (stereo partly drawn) [119A (3R)] | – | IC50 [4]: < 10 µM
20 | COC(=O)C[C@H](Cc1ccccc1)NC(=O)CC1CC(c2ccc(C(=N)N)cc2)=NO1 (stereo partly drawn) [119B (3S)] | – | IC50 [4]: < 10 µM
21 | COC(=O)C[C@@H](CCc1ccccc1)NC(=O)C[C@H]1CC(c2ccc(C(=N)N)cc2)=NO1 [120C (3R)] | – | IC50 [4]: < 10 µM
22 | COC(=O)[C@H](CNC(=O)CC1CC(c2ccc(C(=N)N)cc2)=NO1)NS(=O)(=O)Cc1ccccc1 (stereo partly drawn) [328 (2S)] | – | IC50 [4]: < 10 µM
23 | COC(=O)CC(NC(=O)CC1CC(c2ccc(C(=N)N)cc2)=NO1)c1ccccc1 (stereo not drawn) [Example 89] | < 10 | –
24 | CCC(CC(=O)OC)NC(=O)CC1CC(c2ccc(C(=N)N)cc2)=NO1 (stereo not drawn) [Example 115] | < 10 | –
25 | COC(=O)C[C@@H](CCc1ccccc1)NC(=O)CC1CC(c2ccc(C(=N)N)cc2)=NO1 (stereo partly drawn) [Example 120a, Methyl 3(R)-{5(R,S)-N-[3-(4-amidinophenyl)isoxazolin-5-ylacetyl]amino}-3-phenethylpropanoate] | < 10 | –
26 | COC(=O)C[C@H](CCc1ccccc1)NC(=O)CC1CC(c2ccc(C(=N)N)cc2)=NO1 (stereo partly drawn) [Example 120b, Methyl 3(S)-{5(R,S)-N-[3-(4-amidinophenyl)isoxazolin-5-ylacetyl]amino}-3-phenethylpropanoate] | < 10 | –
27 | CCOC(=O)CC(CN(C)C)NC(=O)CC1CC(c2ccc(C(=N)N)cc2)=NO1 (stereo not drawn) [Example 166] | < 10 | –
28 | O=C(O)CCCN1C(=O)CC2(CC(CCC3CCNCC3)=NO2)C1=O (stereo not drawn) [Example 190] | – | IC50 [1]: 50 to 100 µM
29 | N=C(N)c1ccc(C2=NOC(CC(=O)NC[C@H](N)C(=O)O)C2)cc1 (stereo partly drawn) [Example 275, N^3-[3-(4-amidinophenyl)isoxazolin-5(R,S)-ylacetyl]-L-2,3-diaminopropionic acid TFA salt] | < 10 | –
30 | N=C(N)c1ccc(C2=NOC(CC(=O)NC[C@H](NC(=O)OCc3ccccc3)C(=O)O)C2)cc1 (stereo partly drawn) [Example 276, N^2 -Cbz-N^3-[3-(4-amidinophenyl)isoxazolin-5(R, S) -ylacetyl]-L-2,3-diaminopropionic acid TFA salt] | < 10 | –
31 | CCCCOC(=O)N[C@@H](CNC(=O)CC1CC(c2ccc(C(=N)N)cc2)=NO1)C(=O)O (stereo partly drawn) [Example 278, N^2-n-butyloxycarbonyl-N^3-[3-(4-amidinophenyl)isoxazolin-5(R, S)-ylacetyl]-L-2,3-diaminopropionic acid TFA salt] | < 10 | –
32 | Cc1ccc(S(=O)(=O)NC(CNC(=O)CC2CC(c3ccc(C(=N)N)cc3)=NO2)C(=O)O)cc1 (stereo not drawn) [Example 300] | < 10 | –
33 | COC(=O)C(CNC(=O)CC1CC(c2ccc(C(=N)N)cc2)=NO1)NC(=O)OCc1ccccc1 (stereo not drawn) [Example 312] | < 10 | –
34 | CCCCOC(=O)N[C@@H](CNC(=O)C[C@@H]1CC(c2ccc(C(=N)N)cc2)=NO1)C(=O)OC [Example 314A, Methyl N^2-n-butyloxycarbonyl-N^3-[3-(4-amidinophenyl)isoxazolin-5(S)-ylacetyl]-(S)-2,3-diaminopropionate TFA salt] | < 10 | –
35 | CCCCOC(=O)N[C@@H](CNC(=O)C[C@H]1CC(c2ccc(C(=N)N)cc2)=NO1)C(=O)OC [Example 314B, Methyl-N^2-n-butyloxycarbonyl-N^3-[3-(4-amidinophenyl)isoxazolin-5(R)-ylacetyl]-(S)-2,3-diaminopropionate TFA salt] | < 10 | –
36 | COC(=O)C(CNC(=O)CC1CC(c2ccc(C(=N)N)cc2)=NO1)NS(C)(=O)=O (stereo not drawn) [Example 323] | < 10 | –
